Seven molecules from patent publication US7598286B2, “[(1H-indazol-3-yl)methyl]phenols and (hydroxyphenyl)(1H-indazol-3-yl)methanones” (Wyeth, priority 2004, dated 2009) can be followed below.

Usually melting point stands for the temperature of the solid-liquid transition.

SMILES strings stand for the structures. Like-named read-outs stand apart in the source and are kept apart here.

In one data set the test system is VCAM-1 mRNA. In words: NF-κB target gene expression in liver of mice fed a high fat diet: VCAM-1. Type of data set: in vivo, C57BL/6 mice. The conditions noted are these: 10 mg/kg. The protocol:
(§1) Ovariectomized C57BL/6 mice (16-20 g) (Taconic) were separated into groups of 8. After 5-7 days of recuperation, the mice were fed a chow diet or an atherogenic diet (15.75% fat, 1.25% cholesterol and 0.5% sodium cholate) (Purina diet #21539). EE or test compound was administered once daily by gavage in a methylcellulose/tween vehicle (0.1 ml per mouse) for 5 weeks. At the end of the experimental period, the liver was collected and uterine wet weight was recorded.
(§2) Liver total RNA was prepared by using Trizol reagent (BRL). Estrogen and compound regulation of NF-κB target genes were verified by real time RT-PCR using an ABI PRISM 7700 Sequence Detection System according to the manufacturer's protocol (Applied Biosystems). The data was analyzed using the Sequence Detector v1.7 software (Applied Biosystems) and normalized to GAPDH using the Applied Biosystems primer set.
(§3) To determine the ability of estrogens to regulate the development of diet-induced inflammation in the liver, gene expression changes resulting from the atherogenic diet were monitored. Ovariectomized C57BL/6 mice were fed either a chow or atherogenic diet and treated daily with EE (0.01 mg/kg) or test compound (Table 2).

Data set [1] relates to creatine kinase expression in Ad5-wt-hERα infected HAECT-1 cells. In words: ER/CK: creatine kinase expression in Ad5-wt-ER infected HAECT-1 cells. Type of data set: cell-based, human. The conditions noted are these: for EC50: Homo sapiens; for ER/CK % Eff*: efficacy relative to the maximal stimulation observed with E2. As for the experimental part: (§4) T-175 flasks of 100% confluent HAECT-1 cells (immortalized human aortic endothelial cells) were washed with 8 ml of HBSS (HEPES buffered saline solution) and infected for four hours with 6 ml of a 1:10 dilution of Ad5-wt-hERα virus (an adenovirus transfection vector that mediates CMV promoter driven expression of human ERα) in phenol red free Endothelial Cell Basal medium (Clonetics, San Diego Calif., Catalog # CC-3129) containing 0.25% bovine serum albumin (EBM-BSA). After four hours, cells were washed with EBM-BSA and incubated overnight in the same medium. Following overnight incubation, cells were washed with EBM-BSA and infected for 2 hours with 6 ml of a 1:10 dilution of Ad5-3×(NFκB).Luc virus (Adenovirus luciferase expression vector driven by 3 repeats of the MHC NFκb site 5′ to the thymidine kinase promoter) in EBM-BSA. After two hours, cells were washed and incubated at 34° C. for 1 hour. Cells were then washed, trypsinized, counted and resuspended in 95% FBS/5% dimethylsulfoxide at a concentration of 4×10^6 cells/ml, frozen as 1 or 5 ml aliquots in cryo-vials and stored at −150° C. Control (no ER infection) cells were processed as above without Ad5-wt-hERα virus infection.
(§5) ERα infected HAECT-1 cells or control cells were thawed, diluted 42× in warm EBM-BSA, plated into 96-well plates at 0.1 ml/well and incubated for 4 h at 34° C. Test compounds were added to the cells as 2× stocks in EBM-BSA containing 2 ng/ml IL-1β (R&D Systems) and plates were returned to the incubator (34° C.). After 15-20 h, 100 μl aliquots of media were removed from the cells and assayed for IL-6 content using a BioSource human IL-6 ELISA Kit. Cells were subsequently washed with 300 μl of Dulbecco's phosphate buffered saline and lysed in 50 μl of Cell Culture Lysis Reagent (Promega). Luciferase was determined on a Wallac Victor^2 Luminometer (Gaithersburg, Md.) using 10 μl of lysate and mixing with 100 μl of Promega Luciferase Assay reagent. Creatine kinase was determined from the rate of increase in A340 following addition of 100 μl of CK assay reagent (Sigma, cat. No 47-10) to the remainder of the cell lysate.
(§6) For IC50 and EC50 calculations, mean IL-6, luciferase or CK values versus log10 of the compound concentration were fitted to a four parameter logistic equation. The IC50/EC50 value, ‘Hill slope’, upper and lower limits of the curve were iteratively estimated.

The test system of the next data set is RANTES mRNA. In words: NF-κB target gene expression in liver of mice fed a high fat diet: RANTES. Type of data set: in vivo, C57BL/6 mice. The conditions noted are these: 10 mg/kg. The protocol:
as §1, §2, §3

The subject of the next data set is TNF-α mRNA. In words: NF-κB target gene expression in liver of mice fed a high fat diet: TNFa. The format is in vivo, C57BL/6 mice. The conditions noted are these: 10 mg/kg. The protocol: as §1, §2, §3
For data set [2], the system named is IL-6 expression in Ad5-wt-hERα infected HAECT-1 cells. In words: ER/IL-6: IL-6 expression (ELISA) in Ad5-wt-ER infected HAECT-1 cells. The conditions noted are these: for IC50: IL-1β; for ER/IL-6 % Eff: efficacy relative to the maximal inhibition observed with E2. The format is cell-based, human. The protocol:
as §4, §5, §6

In data set [3] the test system is NF-κB luciferase reporter in Ad5-wt-hERα infected HAECT-1 cells. In words: ER/NF-κB-luc: IL-1β induced NF-κB luciferase reporter in Ad5-wt-ER infected HAECT-1 cells. The format is cell-based. The conditions noted are these: Homo sapiens; for IC50: HAECT1, Ad5-wt-ER infected HAECT-1 cells, IL-1β, read-out: ER/NF-KB-luc IC50; for Emax: HAECT1, efficacy relative to the maximal inhibition observed with E2, read-out: ER/NF-KB-luc % Eff*. The protocol:
as §4, §5, §6
For orientation: Reporter assays use an easily measured gene product as a stand-in for the process of interest.

A further data set concerns MHC invariant chain mRNA. In words: NF-κB target gene expression in liver of mice fed a high fat diet: MHC. The conditions noted are these: 10 mg/kg. The format is in vivo, C57BL/6 mice. The protocol:
as §1, §2, §3

The mark [4] stands for this setting: once daily by gavage, 5 weeks, ovariectomized mice on atherogenic diet, liver RT-PCR.
The mark [5] stands for this setting: HAECT1, read-out: ER/CK EC50 (nM).
Where [6] appears, read: Homo sapiens, HAECT1, Ad5-wt-ER infected HAECT-1 cells.
[7] abbreviates: Ad5-wt-ER infected HAECT-1 cells.

Turning to `O=C(c1cccc(O)c1)c1nn(C2CCCC2)c2ccccc12` [Example 4, (1-cyclopentyl-1H-indazol-3-yl)(3-hydroxyphenyl)methanone], the VCAM-1 % inhib in the data set with VCAM-1 mRNA (setting [4]) was determined as 59%. The “VCAM-1 (eff %)” value in the data set on VCAM-1 mRNA (value in parentheses) turned out to be 100%. Also, the EC50 in data set [1] (setting [5]) is 1330 nM. For the same molecule, the “ER/CK % Eff*” value in data set [1] was 57%. In addition, the RANTES % inhib in the data set with RANTES mRNA (setting [4]) came to 67%. Besides, the “RANTES (eff %)” value with RANTES mRNA (value in parentheses) is 151%. The same molecule showed a TNFa % inhib with TNF-α mRNA (setting [4]) of 45%. Also, in the data set on TNF-α mRNA (value in parentheses), the “TNFa (eff %)” value is on record as 100%. In addition, in data set [2] (setting [6]), the IC50 was found to be 66 nM. In data set [2], the “ER/IL-6 % Eff” value stood at 109%. In addition, in data set [3], the IC50 was found to be 170 nM and the Emax is 77%. In addition, the MHC % inhib with MHC invariant chain mRNA (setting [4]) worked out at 60%. Moreover, the “MHC (eff %)” value in the data set with MHC invariant chain mRNA (value in parentheses) is 138%.

The molecule `O=C(c1cccc(O)c1)c1nn(C2CCCC2)c2c(C(F)(F)F)cccc12` [Example 12, [1-cyclopentyl-7-(trifluoromethyl)-1H-indazol-3-yl](3-hydroxyphenyl)methanone] came in with a melting point of 152 °C. Besides, the EC50 in data set [1] (setting [5]) was found to be 139 nM. For the same molecule, in data set [1], the “ER/CK % Eff*” value worked out at 32%. In addition, in data set [3], the IC50 worked out at 54 nM and the Emax came to 73%.

`CC(C)n1nc(C(=O)c2cccc(O)c2)c2cccc(C(F)(F)F)c21` [Example 13, (3-hydroxyphenyl)[1-isopropyl-7-(trifluoromethyl)-1H-indazol-3-yl]methanone] registered a melting point of 145 °C. The “ER/CK EC50 (nM)” value in data set [1] (setting [7]) was “ia”. In data set [3], the IC50 worked out at 63 nM and the Emax came out at 85%.

`C=C(C)Cn1nc(C(=O)c2cccc(O)c2)c2ccccc21` [Example 14, (3-hydroxyphenyl)[1-(2-methylprop-2-enyl)-1H-indazol-3-yl]methanone]: the melting point is 75 to 78 °C. Further, in data set [1] (setting [7]), the “ER/CK EC50 (nM)” value is given as “ia”. Also, in data set [3], the IC50 was 388 nM and the Emax turned out to be 103%.

Turning to `CC(C)Cn1nc(C(=O)c2cccc(O)c2)c2ccccc21` [Example 17, (3-hydroxyphenyl)(1-isobutyl-1H-indazol-3-yl)methanone], the melting point is 108 to 110 °C. Also, in data set [1] (setting [5]), the EC50 came to 1570 nM. For the same molecule, in data set [1], the “ER/CK % Eff*” value is 51%. In data set [3], the IC50 was 710 nM and the Emax was 100%.

`O=C(c1cccc(O)c1)c1nn(C2C=CCCC2)c2ccccc12` (stereo not shown) [Example 20, (1-cyclohex-2-en-1-yl-1H-indazol-3-yl)(3-hydroxyphenyl)methanone]: the melting point lay in the range of 140 to 141 °C. For the same molecule, the “ER/CK EC50 (nM)” value in data set [1] (setting [7]) is on record as “ia”. In data set [3], the IC50 is 155 nM and the Emax was found to be 87%.

`C[C@]12CC[C@@H]3c4ccc(O)cc4CC[C@H]3[C@@H]1CC[C@@H]2O` [Example E2, 17β-estradiol, reference compound]: the EC50 in data set [1] (HAECT1, Ad5-wt-ER infected HAECT-1 cells, read-out: ER/CK EC50) is 5.8 nM. Besides, the “ER/CK % Eff*” value in data set [1] was 100%. For the same molecule, the IC50 in data set [2] (setting [7]) is 1.7 nM; in data set [2] (setting [6]) it was roughly 1 nM; in data set [3], roughly 1 nM. Moreover, the “ER/IL-6 % Eff” value in data set [2] was found to be 100%. In addition, in data set [3], the Emax came to 100%.
